From publication PMC7154665, “Triple‐Helix‐Stabilizing Effects in Collagen Model Peptides Containing PPII‐Helix‐Preorganized Diproline Modules” (Angewandte Chemie (International Ed. in English), 2020)

Assays:
[1] = CD thermal denaturation of collagen model peptide triple helices (transition temperature); assay type: physicochemical; conditions: for T m (figure legends and text) / T m of the corresponding CMPs: CD denaturation at 225 nm; for T m (figure legends and text): PBS-buffer, 12 °C h-1 heating rate, * substitution-site altered, ** arginine-free peptides; for T m of the corresponding CMPs: Table 2, CMP Ac‐(PPG)5‐PRG‐PPG‐[XY]G‐(PPG)3‐NH2, PBS, 12 °C h-1; for T m: triple-helix transition temperature, CD ellipticity at 225 nm, 60 µM peptide in PBS (10 mM Na2HPO4, 10 mM NaH2PO4, 150 mM NaCl, pH 7.0), 4 to 70 °C, heating rate 12 °C h-1, two-state fit, error ±1 °C
Protocol: For all prepared model peptides, CD spectra were recorded in phosphate‐buffered saline (after incubation for […] at 4 °C). […] The curves were fitted to assess triple‐helical stability by the transition temperature (T m, ±1 °C error) in a standardized fashion (see Table 1 and the Supporting Information). Selected denaturation curves are depicted in Figure 4.
CD spectra and Thermal Denaturation Experiments
Experimental setup - Vacuum-dried peptides were dissolved in phosphate-buffered saline (10 mM Na2HPO4, 10 mM NaH2PO4,
150 mM NaCl, pH = 7.0) and the solutions (60 µM peptide) were incubated at 4 °C for at least 48 h for trimerization. CD
measurements were performed on a Jasco J-715 spectropolarimeter using a quartz cuvette (Hellma Analytics, 1 mm path length) and
To study thermal transitions the ellipticity at 225 nm was monitored while increasing the temperature from 4 to
70 °C at a rather slow heating rate of 12 °C h-1 which was controlled electronically (Jasco PTC-348 WI Peltier element). According to
the literature this heating rate still corresponds to non-equilibrium conditions, however, the generated data can be used for internal
Data interpretation - For Tm-determination a two-state-model was employed in which three peptide chains combine to a triple helix
assuming a previously reported mathematical model (vide infra).[7][8] Constants were set (c = 0.00006, R = 8.31) and auxiliary
variables (P, U, V, K) were used to describe the temperature dependence of the folded fraction F. Thermal transition curves were
fitted by optimizing the parameters θmin, θmax, ΔH, and Tm using the Generalized Reduced Gradient algorithm implemented in the
solver tool of MS Excel.[9]. An error of ±1.0 °C was estimated for the resulting Tm values by repeating denaturation experiments.

HSP47 = target: T1, HSP47 (Canis lupus familiaris, UniProt A0A8I3N7V2); experiment: HSP47 binding by biolayer interferometry (BLI); design: species or system canine; conditions: Table S7; BLI curve fitting; KD = koff/kon; errors by propagation of uncertainty; read-out: KD (with error)
T1 construct: coding for residues 36LSP…RDEL418; inferred from Ni-NTA purification with imidazole elution; made in house; host or cells: E. coli BL21 (DE3)
T1 sequence (A0A8I3N7V2 36-418): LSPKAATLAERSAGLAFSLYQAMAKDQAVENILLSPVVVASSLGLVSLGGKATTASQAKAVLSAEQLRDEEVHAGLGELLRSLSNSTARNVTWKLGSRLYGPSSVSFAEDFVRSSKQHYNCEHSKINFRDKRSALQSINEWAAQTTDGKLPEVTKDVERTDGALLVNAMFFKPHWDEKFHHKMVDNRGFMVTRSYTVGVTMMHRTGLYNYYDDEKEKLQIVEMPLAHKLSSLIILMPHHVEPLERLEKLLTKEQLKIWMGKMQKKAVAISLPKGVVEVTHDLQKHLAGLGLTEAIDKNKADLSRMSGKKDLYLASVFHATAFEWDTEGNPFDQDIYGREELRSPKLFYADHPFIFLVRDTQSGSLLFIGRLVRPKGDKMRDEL
From the text: (1 picture or pasted object on this page, not shown here) […]

For Ac‐ProM1‐OMe, the “T m (figure legends and text)” value [1] was 39.3 °C, the “T m of the corresponding CMPs” value [1] was 39.3 °C and the ΔT m ([1]; in comparison to reference peptide Ac‐(PPG)5‐PRG‐(PPG)5‐NH2) was −6 °C.
With “Ac-PPG-PPG-PPG-PPG-PPG-PPG-PPG-PPG-PPG-PPG-PPG-NH2 [ProPro**]” the “T m (figure legends and text)” value [1] was 45.9 °C.
In the case of “Ac‐(PPG)5‐PRG‐PPG‐ProHypG‐(PPG)3‐NH2 [Entry 2]”, the T m [1] is reported as 49.8 °C.
Compound “Ac‐(PPG)3‐ProM1G‐PPG‐PRG‐(PPG)5‐NH2 [Entry 14]” has a T m [1] of 40.5 °C.
In the case of “Ac‐(PPG)5‐PRG‐PPG‐(HO)2‐ProM2G‐(PPG)3‐NH2 [Entry 11]”, the “T m (figure legends and text)” value [1] is reported as 37.9 °C and the T m [1] is reported as 37.9 °C.
With Ac‐(EtO)2‐ProM1‐OMe the “T m (figure legends and text)” value [1] was 44 °C and the “T m of the corresponding CMPs” value [1] was 44.5 °C.
N=C(N)NCCC[C@H](NC(=O)[C@@H]1CCCN1C(=O)CNC(=O)[C@@H]1CCCN1C(=O)[C@@H]1CCCN1C(=O)CNC(=O)[C@@H]1CCCN1C(=O)[C@@H]1CCCN1C(=O)CNC(=O)[C@@H]1CCCN1C(=O)[C@@H]1CCCN1C(=O)CNC(=O)[C@@H]1CCCN1C(=O)[C@@H]1CCCN1C(=O)CNC(=O)[C@@H]1CCCN1C(=O)[C@@H]1CCCN1C(=O)CCC(=O)NCCOCCOCCNC(=O)CCCC[C@@H]1SC[C@@H]2NC(=O)N[C@@H]21)C(=O)NCC(=O)N1CCC[C@H]1C(=O)N1CCC[C@H]1C(=O)NCC(=O)N1CCC[C@H]1C(=O)N1CCC[C@H]1C(=O)NCC(=O)N1CCC[C@H]1C(=O)N1CCC[C@H]1C(=O)NCC(=O)N1CCC[C@H]1C(=O)N1CCC[C@H]1C(=O)NCC(=O)N1CCC[C@H]1C(=O)N1CCC[C@H]1C(=O)NCC(N)=O [PP] gave a Kd (HSP47) of 370.3 ± 1.8 nM.
For “Ac-PPG-PPG-PPG-PPG-PPG-PPG-PPG-[H2ProM2]G-PPG-PPG-PPG-NH2 [H2-ProM2**]”, the “T m (figure legends and text)” value [1] was 44.4 °C.
With “Ac‐(PPG)5‐PRG‐PPG‐(MeO)2‐ProM1G‐(PPG)3‐NH2 [Entry 7]” the “T m (figure legends and text)” value [1] was 43.6 °C and the T m [1] was 43.6 °C.
With “Ac‐(PPG)5‐PRG‐PPG‐HO‐ProM1G‐(PPG)3‐NH2 [Entry 5]” the “T m (figure legends and text)” value [1] was 43.0 °C and the T m [1] was 43.0 °C.
For COC(=O)[C@@H]1CC(O)CN1C(=O)[C@@H]1CCCN1C(C)=O (stereo partly drawn) [ProHyp], the “T m (figure legends and text)” value [1] was 49.8 °C and the “T m of the corresponding CMPs” value [1] was 49.8 °C.
In the case of “Ac‐(PPG)5‐PRG‐PPG‐ProM1G‐(PPG)3‐NH2 [Entry 3]”, the T m [1] is reported as 39.3 °C.
In the case of “Ac-PPG-PPG-PPG-PPG-PPG-PRG-PPG-OOG-PPG-PPG-PPG-NH2 [HypHyp]”, the “T m (figure legends and text)” value [1] is reported as 46.9 °C.
With “Ac-PPG-PPG-PPG-PPG-PPG-PRG-PPG-OPG-PPG-PPG-PPG-NH2 [HypPro]” the “T m (figure legends and text)” value [1] was 44.0 °C.
For “Ac‐(PPG)3‐H2‐ProM2G‐PPG‐PRG‐(PPG)5‐NH2 [Entry 15]”, the T m [1] was 44.6 °C.
For “Ac‐(PPG)5‐PRG‐PPG‐(MeO)2‐ProM2G‐(PPG)3‐NH2 [Entry 12]”, the “T m (figure legends and text)” value [1] was 40.2 °C and the T m [1] was 40.2 °C.
For Ac‐(EtO)2‐ProM2‐OMe, the “T m of the corresponding CMPs” value [1] was 38.9 °C and the ΔT m ([1]; with regard to the non‐functionalized system (ProM2 series)) was −6 °C.
In the case of “Ac‐(PPG)5‐PRG‐PPG‐(EtO)2‐ProM1G‐(PPG)3‐NH2 [Entry 8]”, the “T m (figure legends and text)” value [1] is reported as 44.5 °C and the T m [1] is reported as 44.5 °C.
In the case of “Ac‐(PPG)5‐PRG‐PPG‐(EtO)2‐ProM2G‐(PPG)3‐NH2 [Entry 13]”, the “T m (figure legends and text)” value [1] is reported as 38.9 °C and the T m [1] is reported as 38.9 °C.
